Columns and labels:
Ret V804M = Ret V804M (Homo sapiens (Human), UniProt P07949, V804M); assay: HTRF kinase inhibition assay, Ret V804M; type: biochemical; conditions: HTRF method
Excerpt: (§1) • 1. […] 1) • 18) Echo (Labcyte, 550) • 3.
(§2) [formula] • Ratiopositive control: average of CEP-32496 readings in all positive control wells • Rationegative control: average of DMSO readings in all negative control wells • Wherein, the chemical name of CEP-32496 is: N-[3-[(6,7-dimethoxy-4-quinazolinyl)oxy]phenyl]-N′-[5-(2,2,2-trifluoro-1,1-dimethylethyl)-3-isoxazolyl]urea. • 4.3 Calculation of the IC50 and Drawing of the inhibition curve of the compound: • The IC50 (half inhibitory concentration) of the compound was obtained using the following non-linear fitting formula: Data analysis was performed using Graphpad 6.0 software. Y=Bottom+(Top−Bottom)/(1+10^((Log IC50−X)*Hill Slope)) • X: compound concentration log value Y: inhibition, % • 5.

Ret wt = Ret wt (Homo sapiens (Human), UniProt P07949); assay: HTRF kinase inhibition assay, Ret wt; type: biochemical; conditions: HTRF method
Excerpt: as §1, §2

Sequence of Ret wt (P07949 29-1114): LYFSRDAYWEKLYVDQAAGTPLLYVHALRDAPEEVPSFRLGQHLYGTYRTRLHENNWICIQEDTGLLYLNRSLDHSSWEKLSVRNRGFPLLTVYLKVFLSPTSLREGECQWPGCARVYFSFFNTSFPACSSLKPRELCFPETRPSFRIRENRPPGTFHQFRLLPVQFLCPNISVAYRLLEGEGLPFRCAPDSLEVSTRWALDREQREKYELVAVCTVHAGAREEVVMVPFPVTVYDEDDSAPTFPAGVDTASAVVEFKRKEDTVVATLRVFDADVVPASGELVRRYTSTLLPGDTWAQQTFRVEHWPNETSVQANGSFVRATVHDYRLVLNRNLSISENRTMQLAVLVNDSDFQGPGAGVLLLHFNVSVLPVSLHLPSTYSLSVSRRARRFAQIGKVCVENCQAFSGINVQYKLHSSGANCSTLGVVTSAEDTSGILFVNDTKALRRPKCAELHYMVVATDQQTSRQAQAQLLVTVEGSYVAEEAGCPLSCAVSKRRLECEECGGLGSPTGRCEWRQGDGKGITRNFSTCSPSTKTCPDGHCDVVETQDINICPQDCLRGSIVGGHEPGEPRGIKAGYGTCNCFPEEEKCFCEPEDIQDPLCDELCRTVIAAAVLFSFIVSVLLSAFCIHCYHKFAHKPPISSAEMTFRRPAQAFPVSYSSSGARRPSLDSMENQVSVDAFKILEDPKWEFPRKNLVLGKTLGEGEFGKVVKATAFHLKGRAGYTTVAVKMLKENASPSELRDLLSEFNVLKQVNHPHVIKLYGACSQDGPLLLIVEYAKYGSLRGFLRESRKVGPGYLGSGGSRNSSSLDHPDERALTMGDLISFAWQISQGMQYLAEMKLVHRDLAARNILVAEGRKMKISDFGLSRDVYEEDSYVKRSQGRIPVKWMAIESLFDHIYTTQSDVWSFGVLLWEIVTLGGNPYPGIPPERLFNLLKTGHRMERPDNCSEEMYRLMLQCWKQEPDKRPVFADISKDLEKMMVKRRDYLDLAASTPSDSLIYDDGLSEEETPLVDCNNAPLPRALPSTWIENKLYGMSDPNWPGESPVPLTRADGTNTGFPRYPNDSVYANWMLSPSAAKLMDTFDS
Sequence of Ret V804M (P07949 29-1114 V804M): as the sequence (P07949 29-1114) above, with V776M counted along it

| SMILES | IC50 (Ret V804M) | IC50 (Ret wt) |
| --- | --- | --- |
| COc1cc(C#CCN2CCN(c3ccc(-c4cc(-c5cnn(C)c5)cn5ncc(C#N)c45)cn3)CC2)ccn1 [Example 243, 4-(6-(4-(3-(2-methoxypyridin-4-yl)prop-2-yn-1-yl)piperazin-1-yl)pyridin-3-yl)-6-(1-methyl-1H-pyrazol-4-yl)pyrazolo[1,5-a]pyridine-3-carbonitrile] | 37.8 nM | 3.51 nM |
| Cn1cc(-c2cc(-c3ccc(N4CC5CC(C4)N5CC#Cc4ccccn4)nc3)c3c(C#N)cnn3c2)cn1 [Example 244] | 0.27 nM | 0.15 nM |
| Cn1cc(-c2cc(-c3ccc(N4CC5CC(C4)N5CC#Cc4ccncc4)nc3)c3c(C#N)cnn3c2)cn1 [Example 245, 6-(1-methyl-1H-pyrazol-4-yl)-4-(6-(6-(3-(pyridin-4-yl)propan-2-yn-1-yl)-3,6-diazabicyclo[3.1.1]heptan-3-yl)pyridin-3-yl)pyrazole[1,5-a]pyridine-3-carbonitrile] | 10.7 nM | 0.65 nM |
| Cn1cc(-c2cc(-c3ccc(N4CCN(CC#Cc5ccc(C(F)(F)F)cc5)CC4)nc3)c3c(C#N)cnn3c2)cn1 [Example 246, 6-(1-methyl-1H-pyrazol-4-yl)-4-(6-(4-(3-(4-(trifluoromethyl)phenyl)prop-2-yn-1-yl)piperazine-1-yl)pyridin-3-yl)pyrazolo[1,5-a]pyridine-3-carbonitrile] | 198 nM | 7.06 nM |
| Cn1cc(-c2cc(-c3ccc(N4CCN(CC#Cc5ccccn5)CC4)nc3)c3c(C#N)cnn3c2)cn1 [Example 247, 6-(1-methylpyrazol-4-yl)-4-[6-[4-[3-(2-pyridyl)prop-2-ynyl]piperazin-1-yl]-3-pyridyl]pyrazolo[1,5-a]pyridine-3-carbonitrile] | 1.94 nM | 0.15 nM |
| Cn1cc(-c2cc(-c3ccc(N4CCN(CC#Cc5cccnc5)CC4)nc3)c3c(C#N)cnn3c2)cn1 [Example 248, 6-(1-methylpyrazol-4-yl)-4-[6-[4-[3-(3-pyridyl)prop-2-ynyl]piperazin-1-yl]-3-pyridyl]pyrazolo[1,5-a]pyridine-3-carbonitrile] | 5.76 nM | 0.58 nM |
| Cn1cc(-c2cc(-c3ccc(N4CC5CC(C4)N5CC#Cc4cccnc4)nc3)c3c(C#N)cnn3c2)cn1 [Example 249, 6-(1-methylpyrazol-4-yl)-4-[6-[6-[3-(3-pyridyl)prop-2-ynyl]-3,6-diazabicyclo[3.1.1]heptan-3-yl]-3-pyridyl]pyrazolo[1,5-a]pyridine-3-carbonitrile] | 1.77 nM | 0.39 nM |
| Cn1cc(-c2cc(-c3ccc(N4CC5CC(C4)N5CC#Cc4ccccc4)nc3)c3c(C#N)cnn3c2)cn1 [Example 250, 6-(1-methyl-1H-pyrazol-4-yl)-4-(6-(6-(3-phenylprop-2-yn-1-yl)-3,6-diazabicyclo[3.1.1]heptanpyridin-3-yl)pyridin-3-yl)pyrazolo[1,5-a]pyridine-3-carbonitrile] | 0.88 nM | 0.14 nM |
| COc1ccc(C#CCN2CCN(c3ccc(-c4cc(-c5cnn(C)c5)cn5ncc(C#N)c45)cn3)CC2)cc1 [Example 251, 4-(6-(4-(3-(4-methoxyphenyl)prop-2-yn-1-yl)piperazin-1-yl)pyridin-3-yl)-6-(1-methyl-1H-pyrazolpyridin-4-yl)pyrazolo[1,5-a]pyridine-3-carbonitrile] | 27.9 nM | 2.41 nM |
| COc1ccnc(C#CCN2CCN(c3ccc(-c4cc(-c5cnn(C)c5)cn5ncc(C#N)c45)cn3)CC2)c1 [Example 252, 4-(6-(4-(3-(4-methoxypyridin-2-yl)propan-2-ynyl-1-yl)piperazin-1-yl)pyridin-3-yl)-6-(1-methyl-1H-pyrazolin-4-yl)pyrazole[1,5-a]pyridine-3-carbonitrile] | 3.21 nM | 0.25 nM |
| Cn1cc(-c2cc(-c3ccc(N4CCN(CC#Cc5ccccc5)CC4)nc3)c3c(C#N)cnn3c2)cn1 [Example 253, 6-(1-methyl-1H-pyrazol-4-yl)-4-(6-(4-(3-phenylprop-2-yn-1-yl)piperazin-1-yl)pyridine-3-yl)pyrazolo[1,5-a]pyridine-3-carbonitrile] | 5.47 nM | 0.91 nM |
| COc1cncc(C#CCN2CCN(c3ccc(-c4cc(-c5cnn(C)c5)cn5ncc(C#N)c45)cn3)CC2)c1 [Example 254, 4-(6-(4-(3-(5-methoxypyridin-3-yl)prop-2-yn-1-yl)piperazin-1-yl)pyridin-3-yl)-6-(1-methyl-1H-pyrazol-4-yl)pyrazolo[1,5-a]pyridine-3-carbonitrile] | 18.3 nM | 3.57 nM |
| Cn1cc(-c2cc(-c3ccc(N4CCN(CC#Cc5cccnc5F)CC4)nc3)c3c(C#N)cnn3c2)cn1 [Example 255, 4-[6-[4-[3-(2-fluoro-3-pyridyl)prop-2-ynyl]piperazin-1-yl]-3-pyridyl]-6-(1-methylpyrazol-4-yl)pyrazolo[1,5-a]pyridine-3-carbonitrile] | 4.11 nM | 0.57 nM |
| Cn1cc(-c2cc(-c3ccc(N4CC5CC(C4)N5CC#Cc4cccnc4F)nc3)c3c(C#N)cnn3c2)cn1 [Example 256, 4-[6-[6-[3-(2-fluoro-3-pyridyl)prop-2-ynyl]-3,6-diazabicyclo[3.1.1]heptan-3-yl]3-pyridyl]-6-(1-methylpyrazol-4-yl)pyrazolo[1,5-a]pyridine-3-carbonitrile] | 0.44 nM | 0.14 nM |
| Cn1cc(-c2cc(-c3ccc(N4CCN(CC#Cc5ncccc5F)CC4)nc3)c3c(C#N)cnn3c2)cn1 [Example 257, 4-(6-(6-(3-(3-fluoropyridin-2-yl)prop-2-yn-1-yl)piperazin-3-yl)pyridin-3-yl)-6-(1-methyl-1H-pyrazol-4-yl)pyrazoline[1,5-a]pyridine-3-carbonitrile] | 0.74 nM | 0.17 nM |
| Cn1cc(-c2cc(-c3ccc(N4CC5CC(C4)N5CC#Cc4ncccc4F)nc3)c3c(C#N)cnn3c2)cn1 [Example 258, 4-(6-(6-(3-(3-fluoropyridin-2-yl)prop-2-yn-1-yl)-3,6-diazabicyclo[3.1.1]heptane-3-yl)pyridin-3-yl)-6-(1-methyl-1H-pyrazol-4-yl)pyrazoline[1,5-a]pyridin-3-carbonitrile] | 0.21 nM | 0.15 nM |
| Cn1cc(-c2cc(-c3ccc(N4CC5CC(C4)N5CC#Cc4cncc(F)c4)nc3)c3c(C#N)cnn3c2)cn1 [Example 259, 4-(6-(6-(3-(5-fluoropyridin-3-yl)prop-2-yn-1-yl)-3,6-diazabicyclo[3.1.1]heptane-3-yl)pyridin-3-yl)-6-(1-methyl-1H-pyrazol-4-yl)pyrazolo[1,5-a]pyridin-3-carbonitrile] | 0.91 nM | 0.16 nM |
| Cn1cc(-c2cc(-c3ccc(N4CCN(CC#Cc5ccc(F)nc5)CC4)nc3)c3c(C#N)cnn3c2)cn1 [Example 261, 4-[6-[4-[3-(6-fluoro-3-pyridyl)prop-2-ynyl]piperazin-1-yl]-3-pyridyl]-6-(1-methylpyrazol-4-yl)pyrazolo[1,5-a]pyridine-3-carbonitrile] | 5.1 nM | 3.1 nM |
| Cn1cc(-c2cc(-c3ccc(N4CC5CC(C4)N5CC#Cc4ccc(F)nc4)nc3)c3c(C#N)cnn3c2)cn1 [Example 262, 4-[6-[6-[3-(6-fluoro-3-pyridyl)prop-2-ynyl]-3,6-diazabicyclo[3.1.1]heptan-3-yl]3-pyridyl]-6-(1-methylpyrazol-4-yl)pyrazolo[1,5-a]pyridine-3-carbonitrile] | 1.92 nM | 0.2 nM |

— patent publication US12209085B2, “RET inhibitors, pharmaceutical compositions and uses thereof” (SUNSHINE LAKE PHARMA CO., LTD., priority 2018, dated 2025)
